Like-named read-outs stand apart in the source and are kept apart here.
Experiments:
[1] = tested on: SIRT1/2/3/5/6; test: Sirtuin deacetylation assay (fluorometric ELISA kit), other sirtuins; format: biochemical, human; settings: different concentrations
Description: To determine the selectivity of YZL-51N, we assessed its inhibitory activity against recombinant human sirtuins expressed in E. coli through deacetylation assays in vitro (Figures 2A and 2B). […] We next validated the direct interaction between YZL-51N and SIRT1/2/6/7 using bio-layer interferometry (BLI) assays to compare their binding affinities. […] To gain insights into the ability of YZL-51N to affect sirtuin thermostability, we conducted protein thermal shift assays. At a concentration of 10 μM, YZL-51N caused shifts in the melting curves for SIRT7, SIRT6 and SIRT1 of 2.86°C, 1.0°C and 0.45°C (Figures S7A–S7C). In addition, we observed a dose-dependent increase in the ΔTm for SIRT7 following YZL-51N treatment (Figures 2F and 2G). Taken together, these findings confirm that YZL-51N is a selective inhibitor of SIRT7.
Deacetylase activity of 10 μg purified SIRT proteins was assessed using the Sirtuin Activity Assay Kit (BioVision, Cat#K324-100, USA) according to the manufacturer’s instructions. The fluorescence intensity (Ex/Em = 400/505 nm) was measured using a microplate reader (Synergy H4 Hybrid Reader, Biotek) in the end-point mode.

[2] = biological target: T1, SIRT7 (Homo sapiens, UniProt Q9NRC8); test: Surface plasmon resonance (SPR) binding assay
T1 construct: His-tagged full length SIRT7 protein expression from BL21 bacterial cells; His; made in house; host or cells: E. coli BL21
T1 sequence (Q9NRC8 1-400): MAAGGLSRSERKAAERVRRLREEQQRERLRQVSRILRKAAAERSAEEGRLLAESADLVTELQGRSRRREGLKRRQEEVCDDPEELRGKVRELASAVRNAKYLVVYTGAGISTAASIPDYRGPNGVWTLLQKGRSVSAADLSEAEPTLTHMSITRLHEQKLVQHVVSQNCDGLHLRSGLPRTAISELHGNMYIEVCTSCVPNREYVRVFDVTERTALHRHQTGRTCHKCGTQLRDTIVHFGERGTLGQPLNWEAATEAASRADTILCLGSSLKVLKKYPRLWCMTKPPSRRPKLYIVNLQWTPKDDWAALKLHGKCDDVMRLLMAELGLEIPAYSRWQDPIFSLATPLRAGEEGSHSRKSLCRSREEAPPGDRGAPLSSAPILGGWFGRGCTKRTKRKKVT
Experimental: All SPR measurements were performed on Biacore T200 instrument (GE Healthcare) with running buffer (PBS+5% DMSO) at room temperature. The bacterially purified His-SIRT7 was covalently immobilized onto Series S Sensor Chip CM5 by a standard amino-coupling procedure in 10 mM sodium acetate (pH 5.5). Two-fold serial dilutions of YZL-51N or NAD^+ in 5% DMSO passed through the sensor chip at 30 μL/min for 120 s, followed by 240 s of dissociation flow. The KD value was calculated based on the concentration dependence of the observed steady-state response using Biacore T200 Evaluation software Version 1.0 (GE Healthcare).

[3] = biological target: T2, SIRT1 (Homo sapiens, UniProt Q96EB6); test: Cellular thermal shift assay in HCT116 cell lysates; format: binding; settings: 20 μM
T2 construct: endogenous in cells; host or cells: HCT116
T2 sequence (Q96EB6 1-747): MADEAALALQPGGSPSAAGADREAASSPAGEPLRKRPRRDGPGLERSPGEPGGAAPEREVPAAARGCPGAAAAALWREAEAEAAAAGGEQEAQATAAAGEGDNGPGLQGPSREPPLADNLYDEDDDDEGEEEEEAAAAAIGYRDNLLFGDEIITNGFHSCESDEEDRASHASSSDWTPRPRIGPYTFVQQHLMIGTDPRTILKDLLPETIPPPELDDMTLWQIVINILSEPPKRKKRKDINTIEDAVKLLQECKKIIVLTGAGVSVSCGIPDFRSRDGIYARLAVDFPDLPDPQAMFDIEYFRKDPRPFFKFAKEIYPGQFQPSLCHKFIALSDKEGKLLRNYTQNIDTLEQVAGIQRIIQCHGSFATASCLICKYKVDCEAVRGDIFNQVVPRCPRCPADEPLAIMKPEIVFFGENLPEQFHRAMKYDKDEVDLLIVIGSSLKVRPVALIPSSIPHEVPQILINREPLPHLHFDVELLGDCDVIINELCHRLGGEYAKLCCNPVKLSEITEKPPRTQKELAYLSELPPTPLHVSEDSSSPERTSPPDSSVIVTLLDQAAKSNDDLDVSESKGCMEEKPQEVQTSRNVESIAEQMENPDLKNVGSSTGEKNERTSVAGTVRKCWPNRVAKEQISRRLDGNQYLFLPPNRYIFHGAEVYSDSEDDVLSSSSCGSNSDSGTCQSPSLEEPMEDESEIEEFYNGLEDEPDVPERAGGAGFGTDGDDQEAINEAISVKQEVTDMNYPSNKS
Experimental: (§1) Cellular thermal shift assays were performed according to previously reported methods with some modifications.[66] Briefly, HCT116 cells were lysed with RIPA buffer and incubated with 20 μM YZL-51N or DMSO for 1 h on ice. Subsequently, cell lysates were divided into 70 μL aliquots and heated individually at different temperatures for 4 min following by cooling on ice. The heated lysates were centrifuged, and 50 μL supernatants were taken for SDS-PAGE and immunoblotting analysis with the indicated antibodies.

[4] = tested on: HCT116 cells; test: Western blot of histone acetylation in treated cells; format: cell-based, human; settings: HCT116, 0-40 μM, 8 h
Experimental: After drug treatment, the cells were lysed in RIPA lysis buffer. […] The membranes were then blocked with 5% skimmed milk in TBST and incubated overnight at 4°C with the primary antibodies followed by incubation with HRP-conjugated secondary antibodies. The protein bands were then detected using the ECL substrates and visualized with Tanon 5200SF Imaging System.

[5] = tested on: HCT116 cells
Experimental: Cells were seeded into 96 well plates (4,000 cells/well). […] The cells were then washed and re-cultured in fresh medium for 48 h. […] Formazan were generated by the addition of 100 μL DMSO and shaking for 30 min. The absorbance of samples was measured at 570 nm using a microtiter plate reader (BioTek).

[6] = biological target: SIRT6 (Homo sapiens, UniProt Q8N6T7); test: Cellular thermal shift assay in HCT116 cell lysates; format: binding; design: endogenous in cells; host or cells: HCT116; settings: 20 μM
Chain of SIRT6 (Q8N6T7 whole entry): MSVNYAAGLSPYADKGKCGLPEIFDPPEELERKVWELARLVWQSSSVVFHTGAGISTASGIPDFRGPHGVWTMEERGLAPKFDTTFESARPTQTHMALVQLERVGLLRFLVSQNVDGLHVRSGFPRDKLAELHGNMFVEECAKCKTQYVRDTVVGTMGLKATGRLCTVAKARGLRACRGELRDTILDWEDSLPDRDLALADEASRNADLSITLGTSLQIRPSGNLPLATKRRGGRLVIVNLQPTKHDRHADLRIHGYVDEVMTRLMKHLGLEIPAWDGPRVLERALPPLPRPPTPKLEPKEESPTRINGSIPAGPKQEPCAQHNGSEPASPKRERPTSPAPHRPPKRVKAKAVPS
Experimental: as §1

SMILES: COC(=O)/C(=C\C(=O)c1ccc(O)c(O)c1)c1ccc(O)c(O)c1 [YZL-51N]
- Inhibition of deacetylase activities of other sirtuins [1]: did not inhibit
- disassociation rate (koff) [2]: 0.0006315 s⁻¹
- Kd ([2]; immobilized His-SIRT7): 1020 nM
- kon ([2]; read-out: association rate (kon)): 618 M⁻¹ s⁻¹
- Effect on the melting curve [3]: no obvious effect
- Level of H3K18ac [4]: increased
- Cell proliferation (%, Mean ± SD) ([5]; single agent 5 μM): 94.8 ± 5.0%
- Cell proliferation (%, Mean ± SD) ([5]; single agent 10 μM): 86.9 ± 5.7%
- Cell proliferation (%, Mean ± SD) ([5]; single agent 20 μM): 76.4 ± 6.0%
- Cell proliferation (%, Mean ± SD) ([5]; single agent 40 μM): 42.8 ± 4.8%
- Cell proliferation (%, Mean ± SD) ([5]; single agent 80 μM): 29.9 ± 5.4%
- Cell proliferation (%, Mean ± SD) ([5]; single agent 160 μM): 17.7 ± 5.3%
- Effect on the melting curve [6]: no obvious effect
